The source made the active and inactive calls. The rule behind the calls is not given here.
Assays:
[1] = system: Staphylococcus aureus; experiment: Antimicrobial activity against Staphylococcus aureus ATCC 29213 after 24 to 48 hrs by broth microdilution assay; type: functional
[2] = system: Staphylococcus aureus; experiment: Antimicrobial activity against methicillin-resistant Staphylococcus aureus clinical isolate after 24 to 48 hrs by broth microdilution assay; type: functional
[3] = system: Enterococcus faecalis; experiment: Antimicrobial activity against Enterococcus faecalis ATCC 29212 after 24 to 48 hrs by broth microdilution assay; type: functional
[4] = system: Streptococcus pyogenes; experiment: Antimicrobial activity against Streptococcus pyogenes ATCC 19615 after 24 to 48 hrs by broth microdilution assay; type: functional
[5] = system: Listeria monocytogenes; experiment: Antimicrobial activity against Listeria monocytogenes ATCC 19111 (1/2a) after 24 to 48 hrs by broth microdilution assay; type: functional
[6] = system: Escherichia coli; experiment: Antimicrobial activity against Escherichia coli ATCC 25922 after 24 to 48 hrs by broth microdilution assay; type: functional
[7] = system: Escherichia coli; experiment: Antimicrobial activity against Escherichia coli clinical isolate after 24 to 48 hrs by broth microdilution assay; type: functional
[8] = system: Klebsiella pneumoniae; experiment: Antimicrobial activity against Klebsiella pneumoniae ATCC 13883 after 24 to 48 hrs by broth microdilution assay; type: functional
[9] = system: Klebsiella pneumoniae; experiment: Antimicrobial activity against Klebsiella pneumoniae clinical isolate after 24 to 48 hrs by broth microdilution assay; type: functional
[10] = system: Salmonella typhimurium; experiment: Antimicrobial activity against Salmonella typhimurium WDCM 00031 after 24 to 48 hrs by broth microdilution assay; type: functional, Salmonella enterica subsp. enterica serovar Typhimurium; conditions: Salmonella enterica
[11] = system: Pseudomonas aeruginosa; experiment: Antimicrobial activity against Pseudomonas aeruginosa ATCC 27853 after 24 to 48 hrs by broth microdilution assay; type: functional
[12] = system: Acinetobacter baumannii; experiment: Antimicrobial activity against Acinetobacter baumannii ATCC 19606 after 24 to 48 hrs by broth microdilution assay; type: functional; conditions: ATCC 19606 = CIP 70.34 = JCM 6841
[13] = system: Acinetobacter baumannii; experiment: Antimicrobial activity against Acinetobacter baumannii clinical isolate after 24 to 48 hrs by broth microdilution assay; type: functional
[14] = system: Candida albicans; experiment: Antifungal activity against Candida albicans ATCC 90029 after 24 to 48 hrs by broth microdilution assay; type: functional
[15] = system: Aspergillus niger; experiment: Antifungal activity against Aspergillus niger after 24 to 48 hrs by broth microdilution assay; type: functional
[16] = system: Penicillium citrinum; experiment: Antifungal activity against Penicillium citrinum after 24 to 48 hrs by broth microdilution assay; type: functional
[17] = system: Staphylococcus aureus; experiment: Bactericidal activity against Staphylococcus aureus ATCC 29213 preincubated for 24 to 48 hrs followed by replating on MHA plates and measured after 18 hrs by broth microdilution assay; type: functional
[18] = system: Staphylococcus aureus; experiment: Bactericidal activity against methicillin-resistant Staphylococcus aureus clinical isolate preincubated for 24 to 48 hrs followed by replating on MHA plates and measured after 18 hrs by broth microdilution assay; type: functional
[19] = system: Enterococcus faecalis; experiment: Bactericidal activity against Enterococcus faecalis ATCC 29212 preincubated for 24 to 48 hrs followed by replating on MHA plates and measured after 18 hrs by broth microdilution assay; type: functional
[20] = system: Streptococcus pyogenes; experiment: Bactericidal activity against Streptococcus pyogenes ATCC 19615 preincubated for 24 to 48 hrs followed by replating on MHA plates and measured after 18 hrs by broth microdilution assay; type: functional
[21] = system: Listeria monocytogenes; experiment: Bactericidal activity against Listeria monocytogenes ATCC 19111 (1/2a) preincubated for 24 to 48 hrs followed by replating on MHA plates and measured after 18 hrs by broth microdilution assay; type: functional
[22] = system: Escherichia coli; experiment: Bactericidal activity against Escherichia coli ATCC 25922 preincubated for 24 to 48 hrs followed by replating on MHA plates and measured after 18 hrs by broth microdilution assay; type: functional
[23] = system: Escherichia coli; experiment: Bactericidal activity against Escherichia coli clinical isolate preincubated for 24 to 48 hrs followed by replating on MHA plates and measured after 18 hrs by broth microdilution assay; type: functional
[24] = system: Klebsiella pneumoniae; experiment: Bactericidal activity against Klebsiella pneumoniae ATCC 13883 preincubated for 24 to 48 hrs followed by replating on MHA plates and measured after 18 hrs by broth microdilution assay; type: functional
[25] = system: Klebsiella pneumoniae; experiment: Bactericidal activity against Klebsiella pneumoniae clinical isolate preincubated for 24 to 48 hrs followed by replating on MHA plates and measured after 18 hrs by broth microdilution assay; type: functional
[26] = system: Salmonella typhimurium; experiment: Bactericidal activity against Salmonella typhimurium WDCM 00031 preincubated for 24 to 48 hrs followed by replating on MHA plates and measured after 18 hrs by broth microdilution assay; type: functional, Salmonella enterica subsp. enterica serovar Typhimurium; conditions: Salmonella enterica
[27] = system: Pseudomonas aeruginosa; experiment: Bactericidal activity against Pseudomonas aeruginosa ATCC 27853 preincubated for 24 to 48 hrs followed by replating on MHA plates and measured after 18 hrs by broth microdilution assay; type: functional
[28] = system: Acinetobacter baumannii; experiment: Bactericidal activity against Acinetobacter baumannii ATCC 19606 preincubated for 24 to 48 hrs followed by replating on MHA plates and measured after 18 hrs by broth microdilution assay; type: functional; conditions: ATCC 19606 = CIP 70.34 = JCM 6841
[29] = system: Acinetobacter baumannii; experiment: Bactericidal activity against Acinetobacter baumannii clinical isolate preincubated for 24 to 48 hrs followed by replating on MHA plates and measured after 18 hrs by broth microdilution assay; type: functional
[30] = system: Staphylococcus aureus; experiment: Growth inhibition in Staphylococcus aureus ATCC 29213 at 1/4 to 1/2 times MIC after 6 hrs; type: functional, organism-based
[31] = system: Staphylococcus aureus; experiment: Antibiofilm activity against Staphylococcus aureus ATCC 29213 at 1/32 to 1/2 times MIC after 3 days by crystal violet staining based assay relative to control; type: functional
[32] = system: Staphylococcus aureus; experiment: Antibiofilm activity against Staphylococcus aureus ATCC 29213 after 3 days by crystal violet staining based assay; type: functional, organism-based
[33] = system: Staphylococcus aureus; experiment: Induction of morphological changes in Staphylococcus aureus ATCC 29213 assessed as cell wall damage at MIC after 1 hr by atomic force microscopic analysis; type: functional, organism-based
[34] = system: Staphylococcus aureus; experiment: Induction of morphological changes in Staphylococcus aureus ATCC 29213 assessed as cell wall damage at MIC after 3 hrs by atomic force microscopic analysis; type: functional, organism-based
[35] = system: Staphylococcus aureus; experiment: Induction of morphological changes in Staphylococcus aureus ATCC 29213 assessed as cell wall damage at 8 times MIC after 1 hr by atomic force microscopic analysis; type: functional, organism-based
[36] = system: Staphylococcus aureus; experiment: Induction of membrane lysis in Staphylococcus aureus ATCC 29213 at 0.5 to 1 times MIC by spectroflurometric analysis based propidium iodide uptake assay; type: functional, organism-based
[37] = system: Staphylococcus aureus; experiment: Induction of membrane lysis in Staphylococcus aureus ATCC 29213 at 4 to 8 times MIC by spectroflurometric analysis based propidium iodide uptake assay; type: functional, organism-based
[38] = system: Staphylococcus aureus; experiment: Antimicrobial activity against Staphylococcus aureus ATCC 29213 assessed as bacterial membrane disruption by measuring dead cells at MIC after 15 mins by thiazole orange/propidium iodide staining based flow cytometric analysis (reference value: 3.22%); type: functional
[39] = system: Staphylococcus aureus; experiment: Antimicrobial activity against Staphylococcus aureus ATCC 29213 assessed as bacterial membrane disruption by measuring live cells at MIC after 15 mins by thiazole orange/propidium iodide staining based flow cytometric analysis (reference value: 88.47%); type: functional
[40] = system: Staphylococcus aureus; experiment: Antimicrobial activity against Staphylococcus aureus ATCC 29213 assessed as bacterial membrane disruption by measuring dead cells at 4 times MIC after 15 mins by thiazole orange/propidium iodide staining based flow cytometric analysis (reference value: 3.22%); type: functional
[41] = system: Staphylococcus aureus; experiment: Antimicrobial activity against Staphylococcus aureus ATCC 29213 assessed as bacterial membrane disruption by measuring live cells at 4 times MIC after 15 mins by thiazole orange/propidium iodide staining based flow cytometric analysis (reference value: 88.47%); type: functional
[42] = system: Staphylococcus aureus; experiment: Antimicrobial activity against Staphylococcus aureus ATCC 29213 assessed as dead cells at 4 times MIC by fluorescence microscopic analysis; type: functional, organism-based
[43] = system: Staphylococcus aureus; experiment: Antimicrobial activity against Staphylococcus aureus ATCC 29213 assessed as live cells at MIC by fluorescence microscopic analysis; type: functional, organism-based
[44] = system: HEK293; experiment: Cytotoxicity against HEK293 cells assessed as reduction in cell viability after 48 hrs by MTS assay; type: cell-based; conditions: Homo sapiens, HEK293, 48 h
[45] = system: TERT-RPE1; experiment: Cytotoxicity against human RPE1 cells assessed as reduction in cell viability after 48 hrs by MTS assay; type: cell-based; conditions: RPE-1, 48 h

## CCCCCCCCCC[N+]12CCC(CC1)C(O)C2.[Br-] (stereo not given)
[1]
  MIC: 125 mg/L
[2]
  MIC: 500 mg/L
[3]
  MIC: 250 mg/L
[4]
  MIC: 15.6 mg/L
[5]
  MIC: 250 mg/L
[6]
  MIC: 250 mg/L
[7]
  MIC: 500 mg/L
[8]
  MIC: 1000 mg/L
[9]
  MIC: 1000 mg/L
[10]
  MIC: 1000 mg/L
[11]
  MIC: 2000 mg/L
[12]
  MIC: 1000 mg/L
[13]
  MIC: 500 mg/L
[14]
  MIC50: 31.2 mg/L
  MIC90: 62.5 mg/L
[15]
  MIC50: 125 mg/L
  MIC90: 250 mg/L
[16]
  MIC50: 250 mg/L
  MIC90: 500 mg/L
[17]
  MBC: 125 mg/L
[18]
  MBC: 500 mg/L
[19]
  MBC: 250 mg/L
[20]
  MBC: 15.6 mg/L
[21]
  MBC: 250 mg/L
[22]
  MBC: 250 mg/L
[23]
  MBC: 500 mg/L
[24]
  MBC: 1000 mg/L
[25]
  MBC: 1000 mg/L
[26]
  MBC: 1000 mg/L
[27]
  MBC: 2000 mg/L
[28]
  MBC: 1000 mg/L
[29]
  MBC: 1000 mg/L

## CCCCCCCCCCCCCC[N+]12CCC(CC1)C(O)C2.[Br-] (stereo not given)
[1]
  MIC: 0.97 mg/L
[2]
  MIC: 3.9 mg/L
[3]
  MIC: 0.97 mg/L
[4]
  MIC: 0.06 mg/L
[5]
  MIC: 3.9 mg/L
[6]
  MIC: 3.9 mg/L
[7]
  MIC: 15.6 mg/L
[8]
  MIC: 15.6 mg/L
[9]
  MIC: 15.6 mg/L
[10]
  MIC: 31.2 mg/L
[11]
  MIC: 31.2 mg/L
[12]
  MIC: 15.6 mg/L
[13]
  MIC: 7.8 mg/L
[14]
  MIC50: 0.06 mg/L
  MIC90: 0.12 mg/L
[15]
  MIC50: 0.48 mg/L
  MIC90: 0.97 mg/L
[16]
  MIC50: 1.95 mg/L
  MIC90: 3.9 mg/L
[17]
  MBC: 0.97 mg/L
[18]
  MBC: 3.9 mg/L
[19]
  MBC: 0.97 mg/L
[20]
  MBC: 0.06 mg/L
[21]
  MBC: 3.9 mg/L
[22]
  MBC: 7.8 mg/L
[23]
  MBC: 15.6 mg/L
[24]
  MBC: 15.6 mg/L
[25]
  MBC: 15.6 mg/L
[26]
  MBC: 31.2 mg/L
[27]
  MBC: 31.2 mg/L
[28]
  MBC: 15.6 mg/L
[29]
  MBC: 15.6 mg/L
[30]
  growth inhibition (GI): Active
[31]
  Activity: 2.3 - 84%
[32]
  Activity: Dose-dependent effect
[33]
  Activity: inactive
[34]
  Activity: Active
[35]
  Activity: Active
[36]
  Activity: inactive
[37]
  Activity: Active
[38]
  Activity: 14.54%
[39]
  Activity: 66.27%
[40]
  Activity: 55.69%
[41]
  Activity: 23.66%
[42]
  Activity: Active
[43]
  Activity: Active
[44]
  IC50: 1 mg/L
[45]
  IC50: 15 mg/L

Source: ChEMBL document CHEMBL4411284, “Discovery of novel quaternary ammonium compounds based on quinuclidine-3-ol as new potential antimicrobial candidates” (Eur J Med Chem, 2019)
